Article PMC4788259 (PLoS Neglected Tropical Diseases, 2016)

Tested on: E. multilocularis metacestodes
Experiment: PGI assay: phosphoglucose isomerase release from damaged metacestodes
Type: cell-based, Echinococcus multilocularis
Conditions: 10 μM, 5 days, single wells, relative to DB1127 (10 μM)
Method: The preparation of E. multilocularis metacestode material (strain H95) from intraperitoneally (i.p.) infected BALB/c mice was performed as described earlier. Metacestode vesicles were used for in vitro drug screening when they reached 2 to 4 mm in diameter.
For screening of the Malaria Box against E. multilocularis metacestodes, the PGI screening assay was applied that measures the release of the enzyme phosphoglucose isomerase (PGI) upon physical impairment of metacestodes. The screening setup was done in 24 well plates as described by Stadelmann et al. For initial screening, each drug was applied at 10 μM to metacestodes in single wells. As a positive control-drug, the dicationic diguanidino compound DB1127 (10 μM) was used and 0.1% DMSO was added as negative control. Metacestodes were cultured in the presence of the compounds for 5 days, after which PGI release was quantified exactly as stated in Stadelmann et al. […] Averages, standard deviations and EC50 values were calculated in Microsoft Excel 2010.

Row | SMILES | PGI (% of DB1127 at 10 uM) [%]
1 | COc1ccc(CCN2C(=O)c3[nH]nc(-c4cc(Cl)c(C)cc4O)c3C2c2ccccc2F)cc1 (stereo not drawn) [MMV396717] | -12.02
2 | COc1cc(C(=O)Nc2nc3c(cc4c5c(cccc53)CC4)s2)cc(OC)c1OC [MMV396665] | -11.85
3 | Cc1cc(NCCN2CCCCC2)c2ccc3ccccc3c2n1 [MMV006203] | -66.37
4 | CCC(C)NCC(O)(c1ccc(Cl)cc1)c1ccc(Cl)cc1 (stereo not drawn) [MMV665928] | -109.93
5 | O=C1CC(O)(C(F)(F)C(F)(F)F)Oc2ccccc21 (stereo not drawn) [MMV000972] | 141.59
6 | OC(CNC1CCCCC1)Cn1c2ccccc2c2ccccc21 (stereo not drawn) [MMV009063] | 29.02
7 | CCOc1ccc(CCNC(=O)c2cccs2)cc1OCC [MMV007978] | -3.44
8 | CC(C)CCNCC(O)Cn1c2ccccc2c2ccccc21.Cl (stereo not drawn) [MMV006787] | 62.04
9 | CC(C)OCc1cc(CN2CCN(c3cccc(Cl)c3)CC2)c(O)c2ncccc12 [MMV000788] | -14.40
10 | CCOC(=O)c1ccc2[nH]c(-c3ccccc3)cc(=O)c2c1 [MMV006457] | 4.84
11 | COc1ccc(-c2cc3c(nn2)-c2ccccc2C3=O)cc1 [MMV666026] | -10.04
12 | COc1cccc(C(=O)Nc2ccc(-c3nc4ccccc4[nH]3)cc2)c1 [MMV019762] | -25.80
13 | COc1ccc(C2N(C)c3ccccc3N2C)cc1 [MMV666075] | 0.50
14 | COc1cc(C(=O)Nc2ccc(-c3nc4ccccc4[nH]3)cc2)cc(OC)c1OC [MMV665898] | -11.03
15 | CN(C)CCCNCc1ccc(-c2ccc(F)c(Cl)c2)o1.Cl [MMV020505] | -8.77
16 | Cl.c1ccc2c(NCCCCCCNc3c4c(nc5ccccc35)CCCC4)c3c(nc2c1)CCCC3 [MMV019555] | -3.16
17 | Oc1ccc(C(=C(Cl)Cl)c2ccc(O)cc2)cc1 [MMV665949] | 8.99
18 | COc1ccccc1CNC(=O)CCn1c(=O)[nH]c2ccccc2c1=O [MMV665916] | -47.23
19 | O=C(NC1CCCCC1)C(c1cccs1)N(CCc1ccccc1)C(=O)c1ccco1 (stereo not drawn) [MMV666106] | 2.06
20 | Cc1ccc(-c2cc3c(SCC(=O)Nc4cc(C(F)(F)F)ccc4Cl)nccn3n2)cc1 [MMV396680] | -41.44

Row | SMILES | PGI (% of DB1127 at 10 uM) [%]
21 | CC(=O)c1ccc(NC(=O)CSc2nc(-c3ccccc3Cl)ns2)cc1 [MMV666124] | -5.85
22 | Cc1nc2ccccc2c(O)c1CC=C(Cl)Cl [MMV665994] | 45.96
23 | O=C(Nc1ccc(C23CC4CC(CC(c5ccccc5)(C4)C2)C3)cc1)c1cccs1 [MMV007574] | -11.28
24 | Cc1ccc(N2C3c4ccccc4N(S(=O)(=O)c4ccc(C)cc4)C2c2ccccc2N3S(=O)(=O)c2ccc(C)cc2)cc1 [MMV007160] | -42.36
25 | Cc1ccc(Cn2c(N3CCC(C(=O)NCc4cccs4)CC3)nc3ccccc32)cc1 [MMV007564] | -118.82
26 | O=C(Nc1ccc(F)c(Cl)c1)Nc1ccc(Cl)c(Cl)c1 [MMV665953] | 213.83
27 | CCc1ccc(Nc2cc(C)nc3nc(C)nn23)cc1 [MMV007374] | 12.73
28 | CCN(CC)CCn1c(=N)n(CC(O)c2ccc(Cl)c(Cl)c2)c2ccccc21.Cl (stereo not drawn) [MMV000248] | -18.11
29 | COc1ccc(-c2cc3c(SCC(=O)Nc4cc(C(F)(F)F)ccc4Cl)nccn3n2)cc1 [MMV396679] | -59.06
30 | COc1ccc(NC(=O)C2c3ccccc3C(=O)N(CC(C)C)C2c2cccs2)cc1 (stereo not drawn) [MMV000662] | -25.19
31 | COc1cccc(Nc2nc(NCCO)c3ccccc3n2)c1.Cl [MMV011944] | 15.53
32 | O=C(NCC(c1ccsc1)N1CCCCCC1)c1ccc(C(F)(F)F)cc1 (stereo not drawn) [MMV396672] | -34.18
33 | COc1ccc(C(=O)Nc2nonc2-c2ccc(OC)c(OC)c2)cc1Cl [MMV011567] | -5.45
34 | C=C(C)CCC(C)N1CCC(N2CCC(C(=O)NCCc3ccccc3)CC2)CC1 (stereo not drawn) [MMV666110] | -25.44
35 | Cc1ccnc(NC(c2cccc(OCc3ccccc3)c2)c2ccc3cccnc3c2O)c1 (stereo not drawn) [MMV000720] | -5.36
36 | Cc1ccc2cc3c(N)c4c(C)ccc(C)c4nc3nc2c1 [MMV666079] | -43.85
37 | CCN(CC)c1cc(C)c2cc(NC(=O)c3cccc(OC)c3)ccc2n1 [MMV000498] | 4.05
38 | c1ccc2c(NCCc3c[nH]c4ccccc34)c3ccccc3nc2c1 [MMV006513] | 41.08
39 | COc1ccc(Nc2nc(NCc3ccccc3)c3ccccc3n2)cc1 [MMV000963] | 109.36
40 | COc1cccc(O)c1CN1CCC2(CCCN(Cc3ccc(F)cc3)C2)C1 (stereo not drawn) [MMV666061] | -20.69

Row | SMILES | PGI (% of DB1127 at 10 uM) [%]
41 | CCn1c(SCC(=O)Nc2cc(C(F)(F)F)ccc2Cl)nc2ccccc2c1=O [MMV666103] | -111.41
42 | CN1C=C(c2ccc3ccccc3n2)C(c2c[nH]c3ccccc23)c2ccccc21 (stereo not drawn) [MMV008160] | -2.32
43 | Cc1c(C)n(Cc2ccc(F)cc2)c2ccc(C(=O)NCc3ccco3)cc12 [MMV008149] | -33.19
44 | Cc1ccc2nc(C)cc(Nc3cccc(C(F)(F)F)c3)c2c1.Cl [MMV000326] | 7.52
45 | CCN(CC)CCNc1ccnc2cc(Cl)ccc12 [MMV006087] | -37.06
46 | CCOC(=O)c1cnc2c(C)cccc2c1Nc1ccc(C(C)=O)cc1 [MMV006250] | -32.91
47 | O=C(Nc1ccc(CN2CCOCC2)cc1)c1ccc(-c2cc(Cl)ccc2Cl)o1 [MMV020651] | -24.05
48 | O=C(NCC1Cc2cccc(-c3ccncc3)c2O1)c1csc2c1CCCC2 (stereo not drawn) [MMV665954] | -10.62
49 | CC(=O)NCCc1nc2ccccc2n1Cc1ccc(C(C)C)cc1 [MMV007617] | -2.63
50 | CC1CCN(Cc2c(O)ccc3cc(-c4nc5ccccc5s4)c(=O)oc23)CC1 [MMV009127] | 0.35
51 | COc1ccc2nc(C)cc(Nc3ccccc3O)c2c1 [MMV274073] | -1.78
52 | COc1cccc(Cn2c(Oc3ccccc3)nc3c2c(=O)n(C)c(=O)n3C)c1 [MMV396705] | -23.91
53 | OC(CNC1CCCC1)Cn1c2ccccc2c2ccccc21 (stereo not drawn) [MMV000848] | 6.03
54 | COc1ccc(C(=O)C(CCC(CNC(C)(C)C)C(=O)c2ccc(OC)cc2)CNC(C)(C)C)cc1 (stereo not drawn) [MMV007591] | -0.71
55 | CCOc1ccccc1NC(=O)CN1CCN(C(=O)c2ccco2)CC1 [MMV007791] | -28.95
56 | O=c1cc(NC2CCN(CCCc3ccccc3)CC2)c2cc(Cl)ccc2o1 [MMV665786] | -0.88
57 | CCCCNCC(O)(c1ccc(Cl)cc1)c1ccc(Cl)cc1 [MMV665929] | -0.59
58 | c1ccc(Cn2c(N=Nc3c(Nc4ccccc4)ccc4ccccc34)nc3ccccc32)cc1 [MMV666023] | -50.58
59 | COc1ccc(-c2nc(N3CCN(C(=O)C4CCCCC4)CC3)c3c4c(sc3n2)CCCC4)cc1 [MMV396594] | -22.30
60 | COc1ccc(NC(=O)C2c3ccccc3C(=O)N(CC(C)C)C2c2cccs2)cc1Cl (stereo not drawn) [MMV000642] | -45.07
